From PMC2880193 (Archives of biochemistry and biophysics, 2010) come the findings set out here.

For the assay, the target named is T1, Put1p (Put1pΔ18) (Saccharomyces cerevisiae, UniProt P09368).
T1 sequence (P09368 19-476): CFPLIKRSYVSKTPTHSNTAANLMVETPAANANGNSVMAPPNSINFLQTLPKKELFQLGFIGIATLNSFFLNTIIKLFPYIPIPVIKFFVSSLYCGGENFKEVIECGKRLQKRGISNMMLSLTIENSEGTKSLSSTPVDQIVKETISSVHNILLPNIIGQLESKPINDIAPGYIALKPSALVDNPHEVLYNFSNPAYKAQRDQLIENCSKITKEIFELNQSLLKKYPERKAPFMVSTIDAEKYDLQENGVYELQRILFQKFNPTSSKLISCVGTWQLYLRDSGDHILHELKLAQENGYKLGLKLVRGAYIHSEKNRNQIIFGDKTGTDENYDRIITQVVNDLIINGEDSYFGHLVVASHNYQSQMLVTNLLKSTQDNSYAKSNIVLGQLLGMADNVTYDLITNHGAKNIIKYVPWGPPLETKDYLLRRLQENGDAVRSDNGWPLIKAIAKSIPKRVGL
Briefly: proline:DCPIP assay, Lineweaver-Burk plot. In kind it is biochemical.

In general, Ki refers to the equilibrium dissociation constant of an inhibitor or competing ligand from its target. Read a high Ki as lower affinity. As for `O=C(O)[C@@H]1CCCO1` [L-THFA], the Ki amounted to 5.3 mM.
